From patent publication US10125168B2, “Synthetic peptide for adjusting balance between presence of type 1 TNF receptor and type 2 TNF receptor and use thereof” (TOAGOSEI CO., LTD., priority 2012, dated 2018)

What was measured:
[1] = system: TNF-R1; experiment: Immunofluorescence / flow cytometry of TNF-R1 presence in human SK-N-SH cells supplied with peptide; format: cell-based; settings: human cell line SK-N-SH, retinoic acid induction, peptide 5 μM, two days; fluorescence intensity relative to control group = 1 (FIG. 2)
Procedure: The activities of the respective peptides synthesized in Example 1 above were tested with cultured cells of a human neuroblastoma cell line (SK-N-SH). The control group was supplied with no peptides. The test details are described below.
Firstly, each peptide synthesized in Example 1 above was dissolved in DMSO to prepare a stock solution having a peptide concentration of 4 mM.
The SK-N-SH cell line was then seeded in a 4 mL fraction in a culture dish of 6 cm diameter at a density of 1.5×10^5 cells/mL and incubated overnight in a general DMEM culture medium (with 10% FBS (a Hyclone product, KSD), 2 mM L-glutamine, 50 unit/mL penicillin, and 50 μg/mL streptomycin) at 37° C. in a CO2 incubator at 5% CO2. Due to a low cell density, incubation was carried on for one more days.
After incubated over two nights, the culture medium was replaced with a fresh DMEM culture medium (with 2% FBS, 20 μM retinoic acid, 2 mM L-glutamine, 50 unit/mL penicillin, and 50 μg/mL streptomycin). Incubation was carried on for five days under the same conditions to effect retinoic acid induction.
Subsequently, the culture medium was replaced with a DMEM culture medium containing a peptide (TNF-R2 upregulating peptide or TNF-R2 downregulating peptide) in an amount equivalent to 5 μM, in addition to 2% FBS, 20 μM retinoic acid, 2 mM L-glutamine, 50 unit/mL penicillin and 50 μg/mL streptomycin (also containing 5 μL of DMSO at this point). Incubation was carried on under the same conditions for two days.
The control group (group supplied with no peptide) was incubated for two days in a DMEM culture medium (with 2% FBS, 20 μM retinoic acid, 20 μM retinoic acid, 2 mM L-glutamine, 50 unit/mL penicillin, and 50 μg/mL streptomycin) supplied only with the aforementioned amount of DMSO, without any added peptide.
(§1) After completion of the incubation, cultured cells in each test group were collected and divided into certain test tubes in fractions having the same number of cells. By the immunofluorescence technique described below, the change in the balance between the presence of TNF-R1 and TNF-R2 was then assessed in each test group (group supplied with TNF-R2 upregulating peptide, group supplied with TNF-R2 downregulating peptide).
More specifically, in each test group, for the TNF-R1 measurement, an anti-TNF-R1 mouse polyclonal antibody (a Santa Cruz Biotechnology Inc. product, SC-52739) was added to the respective test tubes to a final concentration of 2×10^−3 mg/mL and incubation was carried out under ice-cold conditions for a prescribed time period. As a secondary antibody, a goat anti-mouse IgG antibody (an Invitrogen product, A10029) labeled with a fluorescent dye (Alexa® 488) was added to the test tubes to a final concentration of 4×10^−3 mg/mL and incubation was carried out under ice-cold conditions for a prescribed time period.
(§2) In the same manner as Example 2 above, the fluorescence intensities of cells were measured with a flow cytometer. For both TNF-R1 and TNF-R2, the fluorescence intensities are shown as relative values with the fluorescence intensities of TNF-R1 and TNF-R2 in the control group (group supplied with no peptide) being 1, respectively.

[2] = system: TNF-R1; experiment: Immunofluorescence / flow cytometry of TNF-R1 presence in mouse Neuro 2a cells supplied with peptide; format: cell-based; settings: mouse cell line Neuro 2a, retinoic acid induction, peptide 5 μM, two days; fluorescence intensity relative to control group = 1 (FIG. 1)
Procedure: The activities of the peptides of Sample 1 and Sample 6 synthesized in Example 1 above were tested with cultured cells of a mouse […], neuroblastoma cell line (Neuro 2a). The control group was supplied with no peptides. The test details are described below.
Firstly, each peptide synthesized in Example 1 above was dissolved in PBS (phosphate buffered saline) to prepare a stock solution having a peptide concentration of 1 mM (with a small amount of dimethyl sulfoxide (DMSO)). […]
as §1, with “peptide). […]” for “peptide).”
as §2, with “The” for “In the same manner as Example 2 above, the”, “cytometer (a Millipore system product, Guava® easyCyte 8HT).” for “cytometer.”

Sequence | presence of TNF-R1 [1] | presence of TNF-R1 [2]
MGLPTVPGLLLSLVLLALLMG (listed as Mus musculus) [Sample 2, TNF-R2 upregulating peptide; mouse TNF-R1 signal peptide motif, linear, 21 amino acid residues] | no significant change | 
MGLSTVPGLLLPLVLRALLVD (listed as Sus scrofa) [Sample 5, TNF-R2 upregulating peptide; pig TNF-R1 signal peptide motif, linear, 21 amino acid residues] | no significant change | 
MAPAALWVALVFELQLWATGHT (listed as Mus musculus) [Sample 7, TNF-R2 downregulating peptide; mouse TNF-R2 signal peptide motif, linear, 22 amino acid residues] | no significant change | 
MAPVAVWAALAVGLELWAAAHA (listed as Homo sapiens) [Sample 6, TNF-R2 downregulating peptide; human TNF-R2 signal peptide motif, linear, 22 amino acid residues] | no significant change | no significant change
MGLSTVPDLLLPLVLLELLVG (listed as Homo sapiens) [Sample 1, TNF-R2 upregulating peptide; human TNF-R1 signal peptide motif, linear, 21 amino acid residues] | no significant change | no significant change
